The text below walks through data of publication PMC5048684 (The journal of physical chemistry. B, 2016).

Assay [1] concerns the target T1, CYP2C9 (Homo sapiens, UniProt P11712). The assay is described as follows: Luminescence titration of solubilized CYP2C9 with type I and type II ligands.
Assay [2] has as its target T2, P450cam (Pseudomonas putida, UniProt P00183).
T2 sequence (P00183 1-415): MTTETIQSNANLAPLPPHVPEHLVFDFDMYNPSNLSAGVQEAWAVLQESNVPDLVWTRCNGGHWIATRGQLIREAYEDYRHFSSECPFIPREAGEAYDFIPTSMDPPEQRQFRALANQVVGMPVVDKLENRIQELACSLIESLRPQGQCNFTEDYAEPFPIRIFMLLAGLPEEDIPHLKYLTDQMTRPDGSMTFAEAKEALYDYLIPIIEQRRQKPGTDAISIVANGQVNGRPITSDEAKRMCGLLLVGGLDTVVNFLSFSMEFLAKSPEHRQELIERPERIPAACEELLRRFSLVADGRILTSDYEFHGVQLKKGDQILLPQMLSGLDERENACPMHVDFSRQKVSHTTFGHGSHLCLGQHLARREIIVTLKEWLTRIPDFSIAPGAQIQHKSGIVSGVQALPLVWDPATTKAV
As to conditions: read-out: KS (literature values); depending on the stereoisomer used; cited from earlier work.

Assay [3] addresses T1, CYP2C9. As to conditions: read-out: KS (reported value); ref Hutzler et al. 31; cited from earlier work.
The target of assay [4] is CYP3A4 (Homo sapiens, UniProt P08684). Briefly: Luminescence titration of solubilized CYP3A4 with type I and type II ligands.
Sequence of CYP3A4 (P08684 whole entry): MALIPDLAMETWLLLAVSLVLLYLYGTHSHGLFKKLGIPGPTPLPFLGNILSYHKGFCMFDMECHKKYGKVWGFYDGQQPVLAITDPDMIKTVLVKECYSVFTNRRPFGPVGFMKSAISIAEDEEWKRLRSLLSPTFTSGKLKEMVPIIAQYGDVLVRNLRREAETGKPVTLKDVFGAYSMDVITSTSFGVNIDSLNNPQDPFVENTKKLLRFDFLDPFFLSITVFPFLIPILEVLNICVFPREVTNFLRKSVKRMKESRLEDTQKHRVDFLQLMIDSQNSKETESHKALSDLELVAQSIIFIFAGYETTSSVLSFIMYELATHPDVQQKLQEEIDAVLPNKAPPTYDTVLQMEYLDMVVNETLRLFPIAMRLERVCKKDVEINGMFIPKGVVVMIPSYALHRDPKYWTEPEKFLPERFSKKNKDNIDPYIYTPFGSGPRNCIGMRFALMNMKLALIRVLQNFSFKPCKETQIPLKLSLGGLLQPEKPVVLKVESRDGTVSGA

Structures are written as SMILES. Read-outs that look alike come from different tables or passages of the source.

T1 sequence (P11712 whole entry): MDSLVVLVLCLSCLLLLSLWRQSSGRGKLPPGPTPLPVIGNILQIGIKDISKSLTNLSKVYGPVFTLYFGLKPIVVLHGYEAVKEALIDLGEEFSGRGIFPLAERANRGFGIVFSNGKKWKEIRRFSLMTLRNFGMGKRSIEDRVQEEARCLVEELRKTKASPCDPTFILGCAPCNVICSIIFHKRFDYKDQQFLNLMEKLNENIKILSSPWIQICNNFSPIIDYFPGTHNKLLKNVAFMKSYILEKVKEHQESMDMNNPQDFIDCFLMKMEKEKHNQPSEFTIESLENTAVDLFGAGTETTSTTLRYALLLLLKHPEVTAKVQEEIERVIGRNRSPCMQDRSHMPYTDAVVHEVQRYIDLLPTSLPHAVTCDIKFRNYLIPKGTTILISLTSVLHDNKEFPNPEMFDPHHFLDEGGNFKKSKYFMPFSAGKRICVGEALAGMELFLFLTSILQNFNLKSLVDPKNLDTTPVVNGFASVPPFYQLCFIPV

With `O=C(Nc1ccc2ccccc2c1)c1cc(-c2ccncc2)nc2ccccc12` [QC, N-(naphthalene-2-yl)-2-(pyridine-4-yl)quinoline-4-carboxamide], in assay [1], the Kd worked out at 0.11 ± 0.06 µM.
Consider `CC12CCC(CC1=O)C2(C)C` (centres unmarked) [camphor], for which the Kd in assay [2] is 1.6 to 2.6 µM.
Regarding `CC(C(=O)O)c1ccc(-c2ccccc2)c(F)c1` (centres unmarked) [flurbiprofen], the results for the Kd in assay [1] and in assay [3] were 20.2 ± 1.1 µM and 14.1 µM, respectively.
Take `C[C@]12CC[C@H]3[C@@H](CCC4=CC(=O)CC[C@@]43C)[C@@H]1CC[C@@H]2O` [testosterone]: in assay [4], the Kd is 30.5 ± 6.5 µM.
